The target of data set [1] is T1, S1P1 (Homo sapiens, UniProt P21453). Nature of the data set: S1P1 internalization assay in S1P1-U2OS cells (cell imaging). It counts as cell-based. The settings on record: U2OS cells expressing S1P1-EGFP, 1 hour. As for the experimental part: Cellular functional assays: Internalization of Sphingosine-1-phosphate receptor 1 (S1P1) in a human Cell line (U2OS) in a 384-well format using a Cell Imaging analysis.
The S1P1 internalization assay was performed in 384 well plates (Corning® 384 black with clear bottom 3712) using S1P1-U2OS cells from Biolmage (C039A), a human epithelial cell line (Human Bone Osteosarcoma Epithelial Cells). These cells expressed the human S1P1 Receptor fused to the green fluorescent protein (EGFP). A standard CMV promoter (cytomegalovirus promoter) controls the expression of S1P1-EGFP and continuous expression was maintained by addition of geneticin to the culture medium.
S1P1Receptor desensitization induced the internalization of the membrane-localized S1P1-EGFP fusion protein to endosomes, which can be monitored by cell imaging analysis. The cells are plated in low serum medium (Dulbecco's Modified Eagle Medium (DMEM) with Glutamax-1 and high glucose, 1% Penicillin/Streptomycin, 1% Fetal Calf Serum (FCS), 0.5 mg/ml Geneticin) overnight.
The next day, S1P1-U2OS cells are incubated in 20 μl serum free medium (DMEM with Glutamax-1 and high glucose, 0.1% of fatty-acid free Bovin Serum Albumin (BSA), 10 mM, N′-2-Hydroxyethylpiperazine-N′-2 ethanesulphonic acid (HEPES) 1M) for 2 hours at 37° C./5% CO2. The cells are then treated with 4 μl compounds/agonists (6×/3% DMSO) for a total volume of 24 μl, and plates are incubated for 1 hour at 37° C./5% CO2.
S1P1-U2OS cells are fixed with 25 μl Paraformaldehyde 8% and stained with Hoechst 33345 dye (1:1000) for 20 minutes.
They were then washed 3 times with Phosphate Buffered Saline (PBS) and plates are sealed. The internalization of the receptor S1P1-EGFP is measured on Cellomics by calculating the “spot count per object” (“object” corresponds to nuclear and “spot” corresponds to S1P1-EGFP receptor). Internalization data were observed thanks to vHCS View and analyzed using Genedata® software.
Target sequence in this assay (P21453 whole entry, the tested form may be a part): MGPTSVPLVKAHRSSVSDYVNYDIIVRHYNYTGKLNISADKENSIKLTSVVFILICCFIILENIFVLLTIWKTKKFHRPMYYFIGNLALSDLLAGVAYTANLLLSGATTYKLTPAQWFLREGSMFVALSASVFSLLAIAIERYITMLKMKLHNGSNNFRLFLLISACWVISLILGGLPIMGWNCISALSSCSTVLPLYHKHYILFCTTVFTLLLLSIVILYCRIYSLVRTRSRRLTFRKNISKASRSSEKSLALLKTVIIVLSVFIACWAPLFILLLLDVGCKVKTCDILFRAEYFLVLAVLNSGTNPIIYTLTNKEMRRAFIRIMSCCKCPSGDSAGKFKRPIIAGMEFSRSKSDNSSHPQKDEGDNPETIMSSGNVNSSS

For data set [2], the target named is T1, S1P1. Nature of the data set: 35S-GTPγS binding on membranes from CHO cells expressing S1P1. It counts as biochemical. The settings on record: read-out: S1P1/GTPG EC50. The procedure: (§1) Membranes were prepared from CHO cells expressing S1P1 or S1P3 for use in ligand and […] binding studies. Cells were suspended in 50 mM TRIS, pH 7.4, 2 mM EDTA, 250 mM Sucrose (buffer A) and 1× Complete protease inhibitor cocktail (Roche), and disrupted at 4° C. by N2 decompression using a cell disruption bomb (Parr Instrument). Following centrifugation at 1000 RPM for 10 min at 4° C., the supernatant was diluted (2×) in buffer A and centrifuged again at 19000 RPM for 75 min at 4° C. The pellet was then suspended in 10 mM HEPES, pH 7.4, 1 mM EDTA, 250 mM Sucrose (Buffer B), and 1× Complete EDTA-free protease inhibitor cocktail and homogenized using a potter. Membranes were flash frozen in liquid N2 and stored at −80° C.
Membranes (1 to 10 μg protein) prepared as described above, were incubated in 96-well Scintiplates (PerkinElmer) with test compounds diluted in DMSO, in 140 μl of 20 mM HEPES, pH 7.4, 10 mM MgCl2, 2 μg/well Saponin, 0.2% fatty acid free BSA (Assay buffer), 125 mM NaCl and 1.5 μM GDP. […] Supernatant was discarded and membrane bound radioactivity was measured on a PerkinElmer 1450 MicroBeta counter. Triplicate samples were averaged and expressed as % response relative to S1P activation in absence of compound (n=2).
The “potency” or the “activity” of the compounds is determined by the EC50 values as evaluated in the above described 35S-GTPγS binding assay.
Target sequence in this assay (P21453 whole entry, species assumed, the tested form may be a part): as the sequence (P21453 whole entry, the tested form may be a part) above

The target in another data set is S1P3 (Homo sapiens, UniProt Q99500). Kind of data set: Receptor binding assay, [33P]sphingosine 1-phosphate competition (SPA), S1P3. As for the experimental part: as §1
S1P3, sequence (Q99500 whole entry, species assumed): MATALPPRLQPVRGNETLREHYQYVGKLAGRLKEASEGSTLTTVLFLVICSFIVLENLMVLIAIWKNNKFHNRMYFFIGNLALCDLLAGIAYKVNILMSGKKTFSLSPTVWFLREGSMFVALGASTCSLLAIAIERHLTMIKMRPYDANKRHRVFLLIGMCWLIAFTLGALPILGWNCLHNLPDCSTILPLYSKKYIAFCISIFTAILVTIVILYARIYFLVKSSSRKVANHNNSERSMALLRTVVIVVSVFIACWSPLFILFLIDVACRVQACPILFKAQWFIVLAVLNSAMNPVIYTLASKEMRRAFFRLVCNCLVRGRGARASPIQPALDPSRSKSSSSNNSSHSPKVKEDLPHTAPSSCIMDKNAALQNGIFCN
[33P]sphingosine 1-phosphate (3000 Ci/mmol; American Radiolabeled Chemicals, Inc.) was added to test compounds in 20% DMSO by competition. Membranes and WGA SPA beads (GE Healthcare) were added to give a final volume of 100 μl in 96-well plates or 50 μl in 384-well plates with assay concentrations of 30 pM or 15 pM [33P]sphingosine 1-phosphate (respectively for S1P1 or S1P3), 50 mM HEPES, pH 7.5, 5 mM MgCl2, 100 mM NaCl, 0.4% fatty acid-free BSA, 1-5 μg/well of proteins in 96-well plates vs 0.6-1 μg/well of proteins in 384-well plates and 100 μg/well of WGA SPA beads in 96-well plates vs 75 μg/well of WGA SPA beads in 384-well plates. Binding was performed for 60 min at RT on a shaker and bound radioactivity was measured on a PerkinElmer 1450 MicroBeta counter. Triplicate samples were averaged and normalized as percentage of inhibition relative to total binding (only DMSO in well) and non-specific binding (1000-fold excess of unlabeled S1P). Binding data were analyzed using the GraphPad Prism program or Genedata software.

The target in data set [3] is T1, S1P1. Kind of data set: Receptor binding assay, [33P]sphingosine 1-phosphate competition (SPA), S1P1. The procedure:
Cells were suspended in 50 mM TRIS, pH 7.4, 2 mM EDTA, 250 mM Sucrose (buffer A) and 1× Complete protease inhibitor cocktail (Roche), and disrupted at 4° C. by N2 decompression using a cell disruption bomb (Parr Instrument). […] The pellet was then suspended in 10 mM HEPES, pH 7.4, 1 mM EDTA, 250 mM Sucrose (Buffer B), and 1× Complete EDTA-free protease inhibitor cocktail and homogenized using a potter. Membranes were flash frozen in liquid N2 and stored at −80° C.
[33P]sphingosine 1-phosphate (3000 Ci/mmol; American Radiolabeled Chemicals, Inc.) was added to test compounds in 20% DMSO by competition. […] Triplicate samples were averaged and normalized as percentage of inhibition relative to total binding (only DMSO in well) and non-specific binding (1000-fold excess of unlabeled S1P). Binding data were analyzed using the GraphPad Prism program or Genedata software.
Target sequence in this assay (P21453 whole entry, species assumed, the tested form may be a part): as the sequence (P21453 whole entry, the tested form may be a part) above

[4] abbreviates: 384 well-plate, read-out: S1P3 binding Ki (M) (384 well-plate).
[5] abbreviates: 384 well-plate, read-out: S1P1 binding Ki (M) (384 well-plate).

pEC50: −log10 of the molar value. Structures can show the parent of a compound that is named as a salt. Where two headings read alike, the source gives them in different places.

For the molecule `COCc1cc(-c2nc(-c3cccc(CN(C)CC(=O)O)c3)no2)ccc1-c1ccccc1C(F)(F)F` (as salt: hydrochloride) [Example 49, N-(3-{5-[2-(methoxymethyl)-2′-(trifluoromethyl)biphenyl-4-yl]-1,2,4-oxadiazol-3-yl}benzyl)-N-methylglycine], the melting point came to 207 °C.
Turning to `Cc1ccccc1-c1ccc(-c2nc(-c3ccc(CN(C)CC(=O)O)c(F)c3)no2)cc1C(F)(F)F` (as salt: hydrochloride) [Example 70, N-(2-fluoro-4-{5-[2′-methyl-2-(trifluoromethyl)biphenyl-4-yl]-1,2,4-oxadiazol-3-yl}benzyl)-N-methylglycine], the melting point turned out to be 183 °C.
In turn, `Cc1cc(-c2nc(-c3cc(F)cc(CN(C)CC(=O)O)c3)no2)ccc1-c1ccccc1C(F)(F)F` (as salt: hydrochloride) [Example 104, N-(3-fluoro-5-{5-[2-methyl-2′-(trifluoromethyl)biphenyl-4-yl]-1,2,4-oxadiazol-3-yl}benzyl)-N-methylglycine] registered a melting point of 207 °C.
For `CCOc1cc(-c2nc(-c3ccc(CN(C)CC(=O)O)cc3)no2)ccc1-c1ccccc1C(F)(F)F` (as salt: hydrochloride) [Example 115, N-(4-{5-[2-ethoxy-2′-(trifluoromethyl)biphenyl-4-yl]-1,2,4-oxadiazol-3-yl}benzyl)-N-methylglycine], the melting point was 210 °C.
`CN(CC(=O)O)Cc1cc(F)cc(-c2noc(-c3ccc(-c4ccccc4C(F)(F)F)c(Cl)c3)n2)c1` (as salt: hydrochloride) [Example 136, N-(3-{5-[2-chloro-2′-(trifluoromethyl)biphenyl-4-yl]-1,2,4-oxadiazol-3-yl}-5-fluorobenzyl)-N-methylglycine] showed a melting point of 212 °C.
Turning to `Cc1ccccc1-c1ccc(-c2nc(-c3cccc(CN(C)CC(=O)O)c3)no2)cc1C(F)(F)F` [Example 14, N-methyl-N-(3-{5-[2′-methyl-2-(trifluoromethyl)biphenyl-4-yl]-1,2,4-oxadiazol-3-yl}benzyl)glycine], the pEC50 was 8.06 on S1P1 [1] and 8.91 at S1P1 [2]. Further, the Ki turned out to be 2.36e-07 M at S1P3 (96 well-plate, read-out: S1P3 binding Ki (M) (96 well-plate)); 1.68e-07 M on S1P3 (setting [4]); 4.47e-10 M at S1P1 [3] (96 well-plate, read-out: S1P1 binding Ki (M) (96 well-plate)); 1.93e-09 M on S1P1 [3] (setting [5]).
At S1P1 [1], `Cc1ccccc1-c1ccc(-c2nc(-c3cc(F)c(CN(C)CC(=O)O)c(F)c3)no2)cc1C(F)(F)F` [Example 148, 2-((2,6-difluoro-4-(5-(2′-methyl-2-(trifluoromethyl)biphenyl-4-yl)-1,2,4-oxadiazol-3-yl)benzyl)(methyl)amino)acetic acid] had a pEC50 of 7.61. The Ki at S1P3 (setting [4]) stood at 8.34e-07 M; on S1P1 [3] (setting [5]), 2.38e-09 M.
`Cc1ccccc1-c1ccc(-c2nc(-c3ccc(CN(C)CC(=O)O)c(F)c3F)no2)cc1C(F)(F)F` [Example 150, 2-((2,3-difluoro-4-(5-(2-(trifluoromethyl)-2′-methylbiphenyl-4-yl)-1,2,4-oxadiazol-3-yl)benzyl)(methyl)amino)acetic acid] gave a pEC50 on S1P1 [1] of 7.74. For the same molecule, the inhibition constant (Ki) on S1P3 (setting [4]) stood at 2.97e-07 M; on S1P1 [3] (setting [5]) it was 2.07e-09 M.
In turn, `Cc1cc(-c2nc(-c3ccc(CN(C)CC(=O)O)c(F)c3F)no2)ccc1-c1ccccc1C(F)(F)F` [Example 152, 2-((2,3-difluoro-4-(5-(2-methyl-2′-(trifluoromethyl)biphenyl-4-yl)-1,2,4-oxadiazol-3-yl)benzyl)(methyl)amino)acetic acid] had a pEC50 at S1P1 [1] of 7.16. Further, the results for the Ki at S1P3 (setting [4]) and on S1P1 [3] (setting [5]) were 1.25e-05 M and 3.71e-09 M, respectively.
With `Cc1cc(-c2nc(-c3ccc(CN(C)CC(=O)O)cc3Cl)no2)ccc1-c1ccccc1C(F)(F)F` [Example 153, 2-((3-chloro-4-(5-(2-methyl-2′-(trifluoromethyl)biphenyl-4-yl)-1,2,4-oxadiazol-3-yl)benzyl)(methyl)amino)acetic acid], the pEC50 at S1P1 [1] was 7.29. Moreover, the Ki at S1P3 (setting [4]) came to 7.5e-06 M; at S1P1 [3] (setting [5]) it was 3.32e-09 M.
Molecule `Cc1cc(-c2noc(-c3ccc(-c4ccccc4C)c(C(F)(F)F)c3)n2)ccc1CN(C)CC(=O)O` [Example 154, 2-(methyl(2-methyl-4-(5-(2′-methyl-2-(trifluoromethyl)biphenyl-4-yl)-1,2,4-oxadiazol-3-yl)benzyl)amino)acetic acid] showed a pEC50 on S1P1 [1] of 7.76. Further, the Ki on S1P3 (setting [4]) was determined as 1.07e-06 M; at S1P1 [3] (setting [5]) it was 3.16e-09 M.
At S1P1 [1], `CCc1cc(-c2noc(-c3ccc(-c4ccccc4C)c(C(F)(F)F)c3)n2)ccc1CN(C)CC(=O)O` [Example 155, 2-((2-ethyl-4-(5-(2′-methyl-2-(trifluoromethyl)biphenyl-4-yl)-1,2,4-oxadiazol-3-yl)benzyl)(methy)amino)acetic acid] showed a pEC50 of 7.76. Besides, the Ki at S1P3 (setting [4]) amounted to 8.1e-06 M; on S1P1 [3] (setting [5]) it was 3.72e-09 M.

(Values after patent US8802704B2, “Oxadiazole derivatives” (Merck Serono SA, priority 2009, dated 2014).)
